Results as given in patent publication US20220227796A1, “EGFR INHIBITORS, COMPOSITIONS AND METHODS THERE OF” (Betta Pharmaceuticals Co., Ltd., priority 2019, published 2022).
Where a name gives a salt, the structure may show the parent alone.

Tests used:
[1] = target: Ba/F3-Δ19del/T790M/C797S (Homo sapiens, UniProt P00533, T790M/C797S, cells depend on it, form not given); assay: Ba/F3-Δ19del/T790M/C797S cells proliferation assay; format: cell-based; conditions: cell proliferation, 72 h, CellTiter Glo; class symbols; read-out: BaF3 Δ 19del/T790M/C797S IC50
Sequence of Ba/F3-Δ19del/T790M/C797S (P00533 with tags, fused parts or gaps DEL746-750/T790M/C797S, form open): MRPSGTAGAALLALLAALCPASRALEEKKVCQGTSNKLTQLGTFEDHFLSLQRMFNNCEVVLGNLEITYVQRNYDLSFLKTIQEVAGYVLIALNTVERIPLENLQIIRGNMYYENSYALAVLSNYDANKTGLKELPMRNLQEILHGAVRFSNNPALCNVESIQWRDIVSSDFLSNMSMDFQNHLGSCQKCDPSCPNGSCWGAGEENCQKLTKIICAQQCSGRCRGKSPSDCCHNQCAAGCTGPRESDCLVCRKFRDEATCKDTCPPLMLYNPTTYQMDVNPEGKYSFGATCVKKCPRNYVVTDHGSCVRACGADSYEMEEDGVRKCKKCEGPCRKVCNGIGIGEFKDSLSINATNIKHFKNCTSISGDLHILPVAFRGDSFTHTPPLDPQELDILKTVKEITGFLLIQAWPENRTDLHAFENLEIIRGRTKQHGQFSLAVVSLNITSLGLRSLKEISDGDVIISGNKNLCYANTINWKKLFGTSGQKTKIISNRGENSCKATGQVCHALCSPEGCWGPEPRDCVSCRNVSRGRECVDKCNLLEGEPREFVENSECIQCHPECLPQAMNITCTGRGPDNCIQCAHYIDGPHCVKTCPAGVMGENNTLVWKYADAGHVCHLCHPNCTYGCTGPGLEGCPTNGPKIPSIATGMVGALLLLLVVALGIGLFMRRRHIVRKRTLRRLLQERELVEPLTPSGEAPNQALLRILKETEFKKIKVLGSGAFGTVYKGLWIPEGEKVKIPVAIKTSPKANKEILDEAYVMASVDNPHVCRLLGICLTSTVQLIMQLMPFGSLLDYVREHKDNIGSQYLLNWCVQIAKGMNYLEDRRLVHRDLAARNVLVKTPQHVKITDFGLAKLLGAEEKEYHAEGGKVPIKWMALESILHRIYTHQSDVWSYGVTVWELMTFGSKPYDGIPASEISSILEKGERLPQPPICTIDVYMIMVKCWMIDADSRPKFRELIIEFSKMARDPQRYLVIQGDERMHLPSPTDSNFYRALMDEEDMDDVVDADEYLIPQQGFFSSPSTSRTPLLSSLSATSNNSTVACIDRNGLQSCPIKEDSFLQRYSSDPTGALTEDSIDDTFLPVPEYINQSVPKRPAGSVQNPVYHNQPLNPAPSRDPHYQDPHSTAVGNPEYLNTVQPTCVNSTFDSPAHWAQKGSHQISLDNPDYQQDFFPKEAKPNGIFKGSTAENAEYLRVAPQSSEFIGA
Description: (§1) a) The medium was preheated in a 37 water bath in advance.
(§2) b) Remove the cryogenic vials from the liquid nitrogen tank, quickly put it into a 37° C. water bath, and completely melt it in 1 min.
(§3) c) Transfer the cell suspension to a 15 mL centrifuge tube containing 8 mL medium, centrifuge 1000 rpm, 5 min,
(§4) d) Discard the supernatant, resuspend the cells in 1 mL medium, and transfer to a 75 cm^2 flask containing 15 mL medium, culture the cells in an incubator at 37° C., 5% CO2.
(§5) a) The medium was preheated in a 37° C.; water bath in advance.
(§6) b) Collect cell to a 15 mL centrifuged tube, centrifuge at 1000 rpm for 5 min. Discard the supernatant, count, and make the cell density at 1×10^4 cells/mL, then place it in a 37° C., 5% CO2 incubator.
(§7) b) The above compound solution was diluted 1:20 times with culture medium to prepare a 10 fold working solution;
(§8) a) Take cells in log phase growth, centrifuge at 1000 rpm for 5 min, then resuspend the cells with culture medium, then count cells;
(§9) b) Cells were seeded to 96-well cell culture plate with density at 2000 cells/well;
(§10) The blank control well was a culture medium (0.5% DMSO);
(§11) b) The cells were incubated for an additional 72 h in the incubator.
(§12) a) Remove the 96-well cell culture plate and add 50 μl of CTG reagent (CellTiter Glo kit, promega, Cat #G7573).
(§13) b) Plate was shaked for 2 min and then let it cool for 10 min at room temperature.
(§14) c) The Luminescence signal value was read using a PerkinElmer reader.
(§15) Experimental Data Analysis
(§16) Data were analyzed using GraphPad Prism 6.0 software to obtain a fitted curve of compound activity.
(§17) Y=Bottom+(Top−Bottom)/(1+10^((Log IC50−X)*Hill Slope));
(§18) The cells proliferation assay results are expressed with IC50, shown as Table 2.

[2] = tested on: HCC827(Δ19del); assay: HCC827 cells proliferation assay; format: cell-based; conditions: Homo sapiens, HCC827; cell proliferation, 72 h, CellTiter Glo; class symbols; read-out: HCC827 IC50
Description: (§19) Test 3 H1975 and HCC827 Cells Proliferation Assay
(§20) a) The medium was preheated in a 37° C. water bath in advance.
as §2
(§21) c) Transfer the cell suspension to a 15 mL centrifuge tube containing 8 mL medium, centrifuge 1000 rpm, 5 min.
as §4, §6, §7, §8
(§22) b) Cells were seeded to 96-well cell culture plate with density at 2000 cells/well (suitable for H1975 cell) and at 2500 cells/well (suitable for HCC827 cell);
as §10, §11, §12, §13, §14, §15, §16
(§23) Y=Bottom+(Top−Bottom)/(1+10^((Log IC50−X)*HillSlope));
as §18

[3] = target: EGFR Δ19del/T790M/C797S (Homo sapiens, UniProt P00533, T790M/C797S, form not given); assay: Kinase assay (mobility shift) for EGFR Δ19del/T790M/C797S; format: biochemical; conditions: read-out: EGFR Δ 19del/T790M/C797S IC50
Description: (§24) Enzyme reaction protocol are as followed:
(§25) 1. Preparing 1* Kinase buffer as followed.
(§26) 2. Preparing Compound Concentration Gradient: Compounds were tested at a concentration of 300 nM, diluted to 100-fold final concentration in 100% DMSO solution in 96-well plates, and compounds were diluted 3 times with Precision, 10 concentrations. Each concentration of the compound was then further diluted to a 5-fold final concentration of the intermediate dilution solution using 1* Kinase buffer.
(§27) 3. 5 μL of each of the prepared intermediate dilution compounds was separately added to the compound wells of the 384-well plate, and each concentration was tested for duplicate wells; 5 μL of 5% DMSO was added to the negative control wells and the positive control wells, respectively.
(§28) 4. 2.5-fold final concentration of the kinase solution was prepared using 1*Kinase buffer.
(§29) 6. Centrifuge at 1000 rpm for 30 seconds, shake the reaction plate and incubate for 10 minutes at room temperature.
(§30) 8. 10 μL of a 2.5-fold final concentration of a mixed solution of ATP and a substrate was added to initiate the reaction.
(§31) 9. Centrifuge the 384-well plate at 1000 rpm for 30 seconds, mix by shaking, and incubate at room temperature for the corresponding time.
(§32) 10. Add 30 μL of the stop solution to stop the kinase reaction, centrifuge at 1000 rpm for 30 seconds, and mix by shaking.
(§33) 11. Read the conversion rate with Caliper EZ Reader.
(§34) Convert conversion values to inhibition values:
(§35) Percent inhibition=(max−conversion % sample)/(max−min)*100.
(§36) “max” stands for the mean value of the positive control well ratio; “min” stands for the mean value of the negative control well; conversion % sample: sample conversion reading.
(§37) Fit the data in log(inhibitor) vs. response Variable slope of GraphPad Prism 5 to obtain IC50 values.
(§38) Equation used is: Y=Bottom+(Top−Bottom)/(1+(IC50/X)*HillSlope)

[4] = tested on: H1975(L858R/T790M); assay: H1975 cells proliferation assay; format: cell-based; conditions: Homo sapiens, NCI-H1975; cell proliferation, 72 h, CellTiter Glo; class symbols; read-out: H1975 IC50
Description: as §19, §20, §2, §21, §4, §6, §7, §8, §22, §10, §11, §12, §13, §14, §15, §16, §23, §18

[5] = target: EGFR L858R (Homo sapiens, UniProt P00533, L858R); assay: Kinase assay (mobility shift) for EGFR L858R; format: biochemical
Sequence of EGFR L858R (P00533 25-1210 L858R): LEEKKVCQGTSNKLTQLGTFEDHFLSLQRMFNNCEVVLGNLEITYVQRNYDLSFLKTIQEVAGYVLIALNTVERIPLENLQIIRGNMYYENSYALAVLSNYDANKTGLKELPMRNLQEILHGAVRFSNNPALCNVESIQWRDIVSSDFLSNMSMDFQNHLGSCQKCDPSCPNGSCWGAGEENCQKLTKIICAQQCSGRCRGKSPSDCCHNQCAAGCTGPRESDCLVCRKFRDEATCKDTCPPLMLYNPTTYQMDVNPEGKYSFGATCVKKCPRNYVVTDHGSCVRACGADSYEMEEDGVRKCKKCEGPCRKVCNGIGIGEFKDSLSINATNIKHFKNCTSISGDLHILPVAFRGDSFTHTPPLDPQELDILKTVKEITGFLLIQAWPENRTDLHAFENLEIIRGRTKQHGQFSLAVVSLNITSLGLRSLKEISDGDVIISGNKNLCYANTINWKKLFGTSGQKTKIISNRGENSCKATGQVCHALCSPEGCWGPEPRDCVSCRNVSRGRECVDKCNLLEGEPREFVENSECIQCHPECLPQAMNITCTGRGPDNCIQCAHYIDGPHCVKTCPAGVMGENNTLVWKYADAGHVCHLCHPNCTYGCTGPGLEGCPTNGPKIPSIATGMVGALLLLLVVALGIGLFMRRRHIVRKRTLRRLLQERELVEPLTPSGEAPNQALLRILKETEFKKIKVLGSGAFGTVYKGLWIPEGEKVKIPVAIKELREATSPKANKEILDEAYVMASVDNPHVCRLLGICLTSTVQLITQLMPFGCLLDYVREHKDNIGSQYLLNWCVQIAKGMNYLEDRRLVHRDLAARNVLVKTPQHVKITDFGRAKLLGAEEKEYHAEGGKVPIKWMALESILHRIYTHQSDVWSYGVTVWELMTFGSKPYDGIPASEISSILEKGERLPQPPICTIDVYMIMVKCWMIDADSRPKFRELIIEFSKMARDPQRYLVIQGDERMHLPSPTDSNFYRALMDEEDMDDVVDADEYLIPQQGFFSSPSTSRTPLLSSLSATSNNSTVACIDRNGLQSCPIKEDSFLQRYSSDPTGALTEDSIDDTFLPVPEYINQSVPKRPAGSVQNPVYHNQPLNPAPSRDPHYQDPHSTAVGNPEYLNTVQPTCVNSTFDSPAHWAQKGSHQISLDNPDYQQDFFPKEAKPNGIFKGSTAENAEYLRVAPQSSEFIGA
Description: as §24, §25, §26, §27, §28, §29, §30, §31, §32, §33, §34, §35, §36, §37, §38

[6] = target: EGFR T790M/L858R (Homo sapiens, UniProt P00533, L858R/T790M); assay: Kinase assay (mobility shift) for EGFR T790M/L858R; format: biochemical
Sequence of EGFR T790M/L858R (P00533 25-1210 T790M/L858R): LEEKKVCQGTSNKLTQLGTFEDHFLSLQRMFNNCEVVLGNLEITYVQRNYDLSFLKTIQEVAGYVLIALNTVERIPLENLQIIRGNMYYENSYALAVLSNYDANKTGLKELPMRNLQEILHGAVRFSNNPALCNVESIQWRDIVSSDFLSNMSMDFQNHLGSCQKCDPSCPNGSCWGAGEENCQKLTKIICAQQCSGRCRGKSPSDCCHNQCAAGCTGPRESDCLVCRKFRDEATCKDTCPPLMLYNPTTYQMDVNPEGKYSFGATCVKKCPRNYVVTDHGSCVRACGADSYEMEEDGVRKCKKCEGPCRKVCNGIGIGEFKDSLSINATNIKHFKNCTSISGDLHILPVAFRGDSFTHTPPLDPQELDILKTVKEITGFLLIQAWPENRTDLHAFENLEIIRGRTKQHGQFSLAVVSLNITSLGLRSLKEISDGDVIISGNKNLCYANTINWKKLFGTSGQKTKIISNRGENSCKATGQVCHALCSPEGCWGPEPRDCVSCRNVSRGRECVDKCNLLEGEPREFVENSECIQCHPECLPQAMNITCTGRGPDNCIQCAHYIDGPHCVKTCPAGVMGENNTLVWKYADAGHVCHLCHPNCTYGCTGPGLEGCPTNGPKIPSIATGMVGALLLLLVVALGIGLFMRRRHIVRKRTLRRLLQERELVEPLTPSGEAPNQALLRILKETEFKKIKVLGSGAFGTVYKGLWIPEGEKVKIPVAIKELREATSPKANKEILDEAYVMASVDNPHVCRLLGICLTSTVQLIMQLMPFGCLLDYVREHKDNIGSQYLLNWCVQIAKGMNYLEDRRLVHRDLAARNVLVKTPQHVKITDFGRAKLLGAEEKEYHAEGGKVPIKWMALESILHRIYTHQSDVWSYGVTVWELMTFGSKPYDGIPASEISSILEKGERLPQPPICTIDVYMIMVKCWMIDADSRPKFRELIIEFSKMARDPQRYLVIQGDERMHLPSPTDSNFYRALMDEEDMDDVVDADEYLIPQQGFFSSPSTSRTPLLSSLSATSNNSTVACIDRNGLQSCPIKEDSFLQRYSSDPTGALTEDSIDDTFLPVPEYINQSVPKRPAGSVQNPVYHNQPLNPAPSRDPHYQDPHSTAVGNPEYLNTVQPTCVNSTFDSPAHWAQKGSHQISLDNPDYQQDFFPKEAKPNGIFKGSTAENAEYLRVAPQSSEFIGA
Description: as §24, §25, §26, §27, §28, §29, §30, §31, §32, §33, §34, §35, §36, §37, §38

[7] = target: T1, Ba/F3-L858R/T790M/C797S (Homo sapiens, UniProt P00533, T790M/C797S/L858R, cells depend on it); assay: Ba/F3-L858R/T790M/C797S cells proliferation assay; format: cell-based; conditions: cell proliferation, 72 h, CellTiter Glo; class symbols; read-out: BaF3 L858R/T790M/C797S IC50
T1 construct: BaF3 L858R/T790M/C797S IC50; other: cell proliferation, 72 h, CellTiter Glo; class symbols; numeric values
T1 sequence (P00533 whole entry T790M/C797S/L858R): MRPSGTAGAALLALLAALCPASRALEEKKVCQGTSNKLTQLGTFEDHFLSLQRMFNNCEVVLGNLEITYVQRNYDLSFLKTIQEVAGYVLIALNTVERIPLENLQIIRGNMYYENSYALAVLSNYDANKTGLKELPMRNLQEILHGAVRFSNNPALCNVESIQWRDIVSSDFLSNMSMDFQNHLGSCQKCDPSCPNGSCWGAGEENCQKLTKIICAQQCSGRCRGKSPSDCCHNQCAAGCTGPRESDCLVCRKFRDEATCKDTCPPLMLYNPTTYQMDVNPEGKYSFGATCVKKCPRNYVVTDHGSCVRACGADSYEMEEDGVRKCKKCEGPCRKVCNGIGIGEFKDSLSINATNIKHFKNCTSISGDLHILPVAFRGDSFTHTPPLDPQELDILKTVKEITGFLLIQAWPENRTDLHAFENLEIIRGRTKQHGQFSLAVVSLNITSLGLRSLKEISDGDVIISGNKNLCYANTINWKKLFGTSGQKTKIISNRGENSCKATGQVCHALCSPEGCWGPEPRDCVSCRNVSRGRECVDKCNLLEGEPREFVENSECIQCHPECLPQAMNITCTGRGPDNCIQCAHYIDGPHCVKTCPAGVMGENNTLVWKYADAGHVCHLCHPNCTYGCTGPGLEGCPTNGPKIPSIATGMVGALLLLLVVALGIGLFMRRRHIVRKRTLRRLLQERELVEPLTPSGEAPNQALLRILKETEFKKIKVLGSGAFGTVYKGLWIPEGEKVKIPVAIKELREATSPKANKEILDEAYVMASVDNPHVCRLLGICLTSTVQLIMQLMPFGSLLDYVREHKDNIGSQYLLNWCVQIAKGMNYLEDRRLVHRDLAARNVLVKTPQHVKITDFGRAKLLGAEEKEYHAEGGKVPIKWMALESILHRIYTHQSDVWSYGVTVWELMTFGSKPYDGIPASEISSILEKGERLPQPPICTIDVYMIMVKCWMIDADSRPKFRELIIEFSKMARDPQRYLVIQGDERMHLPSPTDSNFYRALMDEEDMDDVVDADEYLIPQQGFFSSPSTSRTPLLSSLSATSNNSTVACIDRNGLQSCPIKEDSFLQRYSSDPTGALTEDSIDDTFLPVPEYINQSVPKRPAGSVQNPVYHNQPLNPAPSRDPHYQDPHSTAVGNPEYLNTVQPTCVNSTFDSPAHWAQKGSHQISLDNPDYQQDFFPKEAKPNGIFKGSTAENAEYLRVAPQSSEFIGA
Description: as §1, §2, §3, §4, §5, §6, §7, §8, §9, §10, §11, §12, §13, §14, §15, §16, §17, §18

GI50 [1] | IC50 [2] | IC50 [3] | IC50 [4] | IC50 [5] | IC50 [6] | GI50 [7] | Compound
10 to 50 nM | 10 to 50 nM | < 10 nM | 10 to 50 nM |  |  |  | C=CC(=O)Nc1cc(Nc2ncc(Cl)c(Nc3ccc4nccnc4c3P(C)(C)=O)n2)c(OC)cc1N1CCC2(CC1)CC(N(C)C)C2 [Compound 11, N-(5-((5-chloro-4-((5-(dimethylphosphoryl)quinoxalin-6-yl)amino)pyrimidin-2-yl)amino)-2-(2-(dimethylamino)-7-azaspiro[3.5]nonan-7-yl)-4-methoxyphenyl)acrylamide]
10 to 50 nM | < 10 nM | < 10 nM | 10 to 50 nM | < 10 nM | < 10 nM |  | C=CC(=O)Nc1cc(Nc2ncc(C)c(Nc3ccccc3P(C)(C)=O)n2)ccc1N(C)CCN(C)C [Compound 19, N-(2-((2-(dimethylamino)ethyl)(methyl)amino)-5-((4-((2-(dimethylphosphoryl)phenyl)amino)-5-methylpyrimidin-2-yl)amino)phenyl)acrylamide hydrochloric acid salt]
10 to 50 nM | 10 to 50 nM | < 10 nM |  |  |  | 10 to 50 nM | C=C(C)C(=O)Nc1cc(Nc2ncc(Cl)c(Nc3ccccc3P(C)(C)=O)n2)ccc1N1CCC2(CC1)CC(N(C)C)C2 [Compound 7, N-(5-((5-chloro-4-((2-(dimethylphosphoryl)phenyl)amino)pyrimidin-2-yl)amino)-2-(2-(dimethylamino)-7-azaspiro[3.5]nonan-7-yl)phenyl)methacrylamide]
 | < 10 nM | 10 to 100 nM | 10 to 50 nM | < 10 nM | < 10 nM |  | C=CC(=O)Nc1cc(Nc2nccc(Nc3ccccc3P(C)(C)=O)n2)ccc1N(C)CCN(C)C [Compound 37, N-(2-((2-(dimethylamino)ethyl)(methyl)amino)-5-((4-((2-(dimethylphosphoryl)phenyl)amino)pyrimidin-2-yl)amino)phenyl)acrylamide]
10 to 50 nM | 10 to 50 nM | < 10 nM |  | 10 to 100 nM | < 10 nM |  | C=CC(=O)Nc1cc(Nc2ncc(F)c(Nc3ccccc3P(C)(C)=O)n2)ccc1N1CCC(N2CCN(C)CC2)CC1 [Compound 29, N-(5-((4-((2-(dimethylphosphoryl)phenyl)amino)-5-fluoropyrimidin-2-yl)amino)-2-(4-(4-methylpiperazin-1-yl)piperidin-1-yl)phenyl)acrylamide]
 | 10 to 50 nM | < 10 nM | 10 to 50 nM | 10 to 100 nM | < 10 nM |  | C=CC(=O)Nc1cc(Nc2ncc(Cl)c(Nc3ccccc3P(C)(C)=O)n2)c(OC)cc1N1CCC2(CCC(N(C)C)CC2)CC1 [Compound 33, N-(5-(5-chloro-4-(2-(dimethylphosphoryl)phenylamino)pyrimidin-2-ylamino)-2-(9-(dimethylamino)-3-azaspiro[5.5]undecan-3-yl)-4-methoxyphenyl)acrylamide]
10 to 50 nM | < 10 nM | < 10 nM | 10 to 50 nM | < 10 nM | < 10 nM |  | C=CC(=O)Nc1cc(Nc2ncc(C)c(Nc3ccccc3P(C)(C)=O)n2)ccc1N1CCC(N2CCN(C)CC2)CC1 [Compound 20, N-(5-((4-((2-(dimethylphosphoryl)phenyl)amino)-5-methylpyrimidin-2-yl)amino)-2-(4-(4-methylpiperazin-1-yl)piperidin-1-yl)phenyl)acrylamide]

The remaining lines, values behind:

Compound | GI50 [1] | IC50 [2] | IC50 [3] | IC50 [4] | IC50 [5] | IC50 [6] | GI50 [7]
C=C(F)C(=O)Nc1cc(Nc2ncc(Cl)c(Nc3ccccc3P(C)(C)=O)n2)ccc1N1CCC2(CC1)CC(N(C)C)C2 [Compound 9, N-(5-((5-chloro-4-((2-(dimethylphosphoryl)phenyl)amino)pyrimidin-2-yl)amino)-2-(2-(dimethylamino)-7-azaspiro[3.5]nonan-7-yl)phenyl)-2-fluoroacrylamide] | 10 to 50 nM |  | < 10 nM |  |  |  | 10 to 50 nM
C=CC(=O)Nc1cc(Nc2ncc(Cl)c(Nc3ccccc3P(C)(C)=O)n2)ccc1OC1CCN(C)CC1 [Compound 41, N-(5-((5-chloro-4-((2-(dimethylphosphoryl)phenyl)amino)pyrimidin-2-yl)amino)-2-((1-methylpiperidin-4-yl)oxy)phenyl)acrylamide] |  | 10 to 50 nM | < 10 nM | 10 to 50 nM | 10 to 100 nM | < 10 nM | 
C=CC(=O)N(C)c1cc(Nc2ncc(Cl)c(Nc3ccccc3P(C)(C)=O)n2)ccc1N1CCC2(CC1)CC(N(C)C)C2 [Compound 6, N-(5-((5-chloro-4-((2-(dimethylphosphoryl)phenyl)amino)pyrimidin-2-yl)amino)-2-(2-(dimethylamino)-7-azaspiro[3.5]nonan-7-yl)phenyl)-N-methylacrylamide] | 10 to 50 nM |  | < 10 nM |  |  |  | 
C=CC(=O)Nc1cc(Nc2ncc(Br)c(Nc3ccc4nccnc4c3P(C)(C)=O)n2)ccc1N1CCC(N2CCN(C)CC2)CC1 [Compound 12, N-(5-((5-bromo-4-((5-(dimethylphosphoryl)quinoxalin-6-yl)amino)pyrimidin-2-yl)amino)-2-(4-(4-methylpiperazin-1-yl)piperidin-1-yl)phenyl)acrylamide] | 10 to 50 nM | 10 to 50 nM |  | 10 to 50 nM |  |  | 10 to 50 nM
C=CC(=O)Nc1cc(Nc2ncc(C)c(Nc3ccccc3P(C)(C)=O)n2)c(OC)cc1N(C)CCN(C)C [Compound 21, N-(2-((2-(dimethylamino)ethyl)(methyl)amino)-5-((4-((2-(dimethylphosphoryl)phenyl)amino)-5-methylpyrimidin-2-yl)amino)-4-methoxyphenyl)acrylamide] |  | < 10 nM | 10 to 100 nM | 10 to 50 nM | < 10 nM | < 10 nM | 
C=CC(=O)Nc1cc(Nc2ncc(F)c(Nc3ccccc3P(C)(C)=O)n2)ccc1N(C)CCN(C)C [Compound 32, N-(2-((2-(dimethylamino)ethyl)(methyl)amino)-5-(4-(2-(dimethylphosphoryl)phenylamino)-5-fluoropyrimidin-2-ylamino)phenyl)acrylamide] |  | < 10 nM | 10 to 100 nM | 10 to 50 nM | < 10 nM | < 10 nM | 
